Columns and labels:
IRAK4 [1] = target: T1, IRAK4 (Homo sapiens, UniProt Q9NWZ3); assay: WB detection of proteolysis (Western Blot, THP-1 cells); assay type: cell-based; settings: Western Blot, THP-1 cells, 24 h; for DC50: read-out: DC50; for Dmax: read-out: Dmax
T1 sequence (Q9NWZ3 1-460): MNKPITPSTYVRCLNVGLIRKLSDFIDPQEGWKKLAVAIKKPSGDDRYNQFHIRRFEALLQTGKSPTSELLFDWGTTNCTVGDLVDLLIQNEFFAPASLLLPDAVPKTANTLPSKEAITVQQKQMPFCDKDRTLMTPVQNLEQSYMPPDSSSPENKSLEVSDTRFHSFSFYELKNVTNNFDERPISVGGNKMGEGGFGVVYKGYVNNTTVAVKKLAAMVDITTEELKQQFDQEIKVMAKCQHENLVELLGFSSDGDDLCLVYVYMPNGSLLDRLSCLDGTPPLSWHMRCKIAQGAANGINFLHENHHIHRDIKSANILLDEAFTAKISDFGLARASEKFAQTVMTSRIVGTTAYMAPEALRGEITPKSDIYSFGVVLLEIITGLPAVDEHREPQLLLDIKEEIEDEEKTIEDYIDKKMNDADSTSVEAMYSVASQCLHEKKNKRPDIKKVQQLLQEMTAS
Outline: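 IRAK4 level in RIPA lysates read by Western blot with Odyssey imaging; values from bell-shaped non-linear fit with two four-parameter sections (Plateau1, Plateau2, Dip, LogEC50_1/2, nH1/2).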

IRAK4 [2] = target: T1, IRAK4; assay: Hibit fluorescence detection of proteolysis (IRAK4-HiBiT in HEK293T cells); assay type: cell-based; set-up: host or cells: HEK293T (ATCC); settings: for Dmax: HEK-293T; for DC50: IRAK4-HiBiT, HEK293T cells, 24 h
Outline: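 Degradation read-out: luminescence from lytic HiBiT detection (15 min, room temperature) after 24 h compound exposure (37 °C, 5% CO2) of HEK293T cells transiently expressing IRAK4 fused to a HiBiT tag. Data fitted to a bell-shaped four-parameter model giving two EC50 values.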

SMILES	DC50 (IRAK4 [1])	Dmax (IRAK4 [1])	Dmax (IRAK4 [2])	DC50 (IRAK4 [2])
Cn1c(=O)n(C2CCC(=O)NC2=O)c2cccc(N3CCC4(CCN(C[C@H]5CC[C@H](n6cc(-n7cc(-c8cnn9ccc(N%10CCC(O)CC%10)nc89)nn7)c(C(F)F)n6)CC5)CC4)CC3)c21 (some centres unmarked) [Example 136]	< 10 nM	> 70%	> 80%	< 0.5 nM
Cn1c(=O)n(C2CCC(=O)NC2=O)c2cccc(N3CCC4(CCN(C[C@H]5CC[C@H](n6cc(-n7cc(-c8cnn9ccc(N%10CCC(O)CC%10)nc89)nn7)c(C(F)F)n6)CC5)C4)CC3)c21 (some centres unmarked) [Example 139]	< 10 nM	> 70%	> 80%	< 0.5 nM
Cn1c(=O)n(C2CCC(=O)NC2=O)c2cccc(N3CCN(C[C@H]4CC[C@H](n5cc(-n6cc(-c7cnn8ccc(N9CCC(O)CC9)nc78)nn6)c(C(F)F)n5)CC4)CC3)c21 (some centres unmarked) [Example 140]	10 to 30 nM	> 70%	> 80%	< 0.5 nM
Cn1c(=O)n(C2CCC(=O)NC2=O)c2cccc(N3CCN(C[C@H]4CC[C@H](n5cc(-n6cc(-c7cnn8ccc(N9CCC[C@H](O)C9)nc78)nn6)c(C(F)F)n5)CC4)CC3)c21 (some centres unmarked) [Example 141]	< 10 nM	> 70%	> 80%	< 0.5 nM
Cn1c(=O)n(C2CCC(=O)NC2=O)c2cccc(N3CCC4(CCN(C[C@H]5CC[C@H](n6cc(-n7cc(-c8cnn9ccc(N%10CCC[C@H](O)C%10)nc89)nn7)c(C(F)F)n6)CC5)CC4)CC3)c21 (some centres unmarked) [Example 142]	< 10 nM	> 70%	> 80%	< 0.5 nM
Cn1c(=O)n(C2CCC(=O)NC2=O)c2cccc(N3CCN(C4CCN(C[C@H]5CC[C@H](n6cc(-n7cc(-c8cnn9ccc(N%10CCC[C@H](O)C%10)nc89)nn7)c(C(F)F)n6)CC5)CC4)CC3)c21 (some centres unmarked) [Example 144]	< 10 nM	> 70%	> 80%	< 0.5 nM
Cn1c(=O)n(C2CCC(=O)NC2=O)c2cccc(N3CCC4(CCN(C[C@H]5CC[C@H](n6cc(-n7cc(-c8cnn9ccc(N%10CCC[C@H](O)C%10)nc89)nn7)c(C(F)F)n6)CC5)C4)CC3)c21 (some centres unmarked) [Example 145]	< 10 nM	> 70%	> 80%	< 0.5 nM
Cn1c(=O)n(C2CCC(=O)NC2=O)c2cccc(N3CCC4(CCN(C[C@H]5CC[C@H](n6cc(-n7cc(-c8cnn9ccc(N[C@H]%10CCCC[C@H]%10O)nc89)nn7)c(C(F)F)n6)CC5)C4)CC3)c21 (some centres unmarked) [Example 147]	10 to 30 nM	> 70%	> 80%	< 0.5 nM
Cn1c(=O)n(C2CCC(=O)NC2=O)c2cccc(N3CCC4(CCN(C[C@H]5CC[C@H](n6cc(-n7cc(-c8cnn9ccc(N[C@H]%10CCCC[C@H]%10O)nc89)nn7)c(C(F)F)n6)CC5)CC4)CC3)c21 (some centres unmarked) [Example 148]	10 to 30 nM	> 70%	> 80%	< 0.5 nM
Cn1c(=O)n(C2CCC(=O)NC2=O)c2cccc(N3CCC4(CCN(C[C@H]5CC[C@H](n6cc(-n7cc(-c8cnn9ccc(N[C@@H]%10CCCC[C@@H]%10O)nc89)nn7)c(C(F)F)n6)CC5)CC4)CC3)c21 (some centres unmarked) [Example 151]	< 10 nM	> 70%	> 80%	< 0.5 nM
Cn1c(=O)n(C2CCC(=O)NC2=O)c2cccc(N3CCN(C4CCN(C[C@H]5CC[C@H](n6cc(-n7cc(-c8cnn9ccc(N[C@@H]%10CCCC[C@@H]%10O)nc89)nn7)c(C(F)F)n6)CC5)CC4)CC3)c21 (some centres unmarked) [Example 153]	< 10 nM	> 70%	> 80%	< 0.5 nM
Cn1c(=O)n(C2CCC(=O)NC2=O)c2cccc(N3CCC4(CCN(C[C@H]5CC[C@H](n6cc(-n7cc(-c8cnn9ccc(N[C@@H]%10CCCC[C@@H]%10O)nc89)nn7)c(C(F)F)n6)CC5)C4)CC3)c21 (some centres unmarked) [Example 154]	< 10 nM	> 70%	> 80%	< 0.5 nM
Cn1c(=O)n(C2CCC(=O)NC2=O)c2cccc(N3CCC(N4CCN(C[C@H]5CC[C@H](n6cc(-n7cc(-c8cnn9ccc(N[C@@H]%10CCCC[C@@H]%10O)nc89)nn7)c(C(F)F)n6)CC5)CC4)CC3)c21 (some centres unmarked) [Example 155]	< 10 nM	> 70%	> 80%	< 0.5 nM
Cn1c(=O)n(C2CCC(=O)NC2=O)c2cccc(N3CCN(C[C@H]4CC[C@H](n5cc(-n6cc(-c7cnn8ccc(N9CCC[C@@H](O)C9)nc78)nn6)c(C(F)F)n5)CC4)CC3)c21 (some centres unmarked) [Example 243]	< 10 nM	> 70%	> 80%	< 0.5 nM
Cn1c(=O)n(C2CCC(=O)NC2=O)c2cccc(N3CCN(C4CCN(C[C@H]5CC[C@H](n6cc(-n7cc(-c8cnn9ccc(N%10CCC[C@@H](O)C%10)nc89)nn7)c(C(F)F)n6)CC5)CC4)CC3)c21 (some centres unmarked) [Example 245]	< 10 nM	> 70%	> 80%	< 0.5 nM
Cn1c(=O)n(C2CCC(=O)NC2=O)c2cccc(N3CCC4(CCN(C[C@H]5CC[C@H](n6cc(-n7cc(-c8cnn9ccc(N%10CCC[C@@H](O)C%10)nc89)nn7)c(C(F)F)n6)CC5)C4)CC3)c21 (some centres unmarked) [Example 248]	< 10 nM	> 70%	> 80%	< 0.5 nM
C[C@H]1CN(c2cccc3c2n(C)c(=O)n3C2CCC(=O)NC2=O)CCN1C[C@H]1CC[C@H](n2cc(-n3cc(-c4cnn5ccc(N6CCC[C@H](N)C6)nc45)nn3)c(C(F)F)n2)CC1 (some centres unmarked) [Example 285]	> 30 nM	60 to 70%	> 80%	< 0.5 nM

Reference: patent publication EP4759807A1, “PROTEOLYSIS TARGETING CHIMERA COMPOUND FOR DEGRADING IRAK4 AND USE THEREOF” (Shenzhen Zhongge Biological Technology Co., Ltd., priority 2023, dated 2025)
